Blank lines part the entries; values can stand above or below the compound they belong to. Active and inactive are the calls of the source. No cut-off for these calls is given here.
Legend:
[1] = target: T1, 3',5'-cyclic-AMP phosphodiesterase 4B (Homo sapiens, UniProt Q07343); assay: Inhibition of human recombinant His-tagged PDE4B expressed in Sf9 cells using cAMP as substrate at 10 uM preincubated with enzyme for 15 mins followed by substrate addition and incubated for 1 hr by PDELight HTS cAMP phosphodiesterase Kit based luminometry relative to control
T1 sequence (Q07343 whole entry): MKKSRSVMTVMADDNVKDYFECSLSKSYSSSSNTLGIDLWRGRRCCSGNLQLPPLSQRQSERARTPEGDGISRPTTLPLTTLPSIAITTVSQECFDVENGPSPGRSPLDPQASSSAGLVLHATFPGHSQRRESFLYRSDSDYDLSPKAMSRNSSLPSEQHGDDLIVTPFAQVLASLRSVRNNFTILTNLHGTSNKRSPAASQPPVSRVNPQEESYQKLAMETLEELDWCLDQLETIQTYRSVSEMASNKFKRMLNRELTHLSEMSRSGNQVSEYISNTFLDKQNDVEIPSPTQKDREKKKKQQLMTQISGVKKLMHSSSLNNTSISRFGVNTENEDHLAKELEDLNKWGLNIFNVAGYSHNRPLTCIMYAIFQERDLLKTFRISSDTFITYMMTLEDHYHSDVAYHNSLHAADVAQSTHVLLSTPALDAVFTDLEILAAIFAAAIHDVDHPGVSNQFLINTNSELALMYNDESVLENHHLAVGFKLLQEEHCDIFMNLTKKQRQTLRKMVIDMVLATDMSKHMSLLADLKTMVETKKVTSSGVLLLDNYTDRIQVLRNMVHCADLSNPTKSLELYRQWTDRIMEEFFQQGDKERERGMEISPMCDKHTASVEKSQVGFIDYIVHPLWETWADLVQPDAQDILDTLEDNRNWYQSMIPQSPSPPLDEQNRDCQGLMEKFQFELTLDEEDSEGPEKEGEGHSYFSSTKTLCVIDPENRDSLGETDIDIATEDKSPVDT

[2] = target: T1, 3',5'-cyclic-AMP phosphodiesterase 4B; assay: Inhibition of recombinant His-tagged human PDE4B expressed in Sf9 cells using cAMP as substrate preincubated with enzyme for 15 mins followed by substrate addition and incubated for 1 hr by PDELight HTS cAMP phosphodiesterase Kit based luminometry
[3] = Inhibition of recombinant N-terminal GST-tagged full length human PDE4A1A expressed in Sf9 cells using cAMP as substrate at 1xIC50 incubated for 60 mins by fluorescence plate reader analysis
[4] = Inhibition of recombinant N-terminal GST-tagged full length human PDE4A1A expressed in Sf9 cells using cAMP as substrate at 0.1xIC50 incubated for 60 mins by fluorescence plate reader analysis
[5] = Inhibition of recombinant N-terminal GST-tagged full length human PDE4A1A expressed in Sf9 cells using cAMP as substrate at 10xIC50 incubated for 60 mins by fluorescence plate reader analysis
[6] = target: 3',5'-cyclic-AMP phosphodiesterase 4A (Homo sapiens) (UniProt P27815); assay: Inhibition of recombinant N-terminal GST tagged human PDE4A4B (2-end aa) expressed in Sf9 cells using FAM-cAMP as substrate at 0.1xIC50 incubated for 60 mins by fluorescence plate reader analysis
Sequence of 3',5'-cyclic-AMP phosphodiesterase 4A (Homo sapiens) (P27815 whole entry): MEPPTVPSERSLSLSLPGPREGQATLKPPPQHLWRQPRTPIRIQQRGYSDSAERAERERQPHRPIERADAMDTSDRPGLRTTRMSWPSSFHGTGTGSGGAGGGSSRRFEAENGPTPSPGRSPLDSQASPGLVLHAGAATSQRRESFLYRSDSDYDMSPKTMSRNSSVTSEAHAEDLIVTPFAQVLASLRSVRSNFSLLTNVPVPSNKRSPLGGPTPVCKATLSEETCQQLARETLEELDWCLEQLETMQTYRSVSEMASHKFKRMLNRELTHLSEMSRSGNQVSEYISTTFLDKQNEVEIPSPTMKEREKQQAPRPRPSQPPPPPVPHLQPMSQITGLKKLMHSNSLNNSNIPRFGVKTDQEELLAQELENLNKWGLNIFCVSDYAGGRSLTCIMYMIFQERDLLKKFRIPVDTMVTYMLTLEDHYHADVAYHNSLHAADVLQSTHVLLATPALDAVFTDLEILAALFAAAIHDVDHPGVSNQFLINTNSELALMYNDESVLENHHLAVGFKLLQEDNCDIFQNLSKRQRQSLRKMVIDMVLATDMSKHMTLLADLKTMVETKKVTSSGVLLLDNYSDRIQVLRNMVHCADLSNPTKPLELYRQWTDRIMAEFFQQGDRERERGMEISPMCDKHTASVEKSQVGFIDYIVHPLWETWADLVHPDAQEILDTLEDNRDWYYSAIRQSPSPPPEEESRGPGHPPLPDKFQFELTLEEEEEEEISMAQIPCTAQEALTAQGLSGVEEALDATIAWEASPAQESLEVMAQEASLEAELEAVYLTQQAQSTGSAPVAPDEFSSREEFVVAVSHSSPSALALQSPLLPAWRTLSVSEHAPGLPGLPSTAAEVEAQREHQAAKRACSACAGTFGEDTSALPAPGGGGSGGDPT

[7] = target: 3',5'-cyclic-AMP phosphodiesterase 4A (Homo sapiens) (UniProt P27815); assay: Inhibition of recombinant N-terminal GST tagged human PDE4A4B (2-end aa) expressed in Sf9 cells using FAM-cAMP as substrate at 10xIC50 incubated for 60 mins by fluorescence plate reader analysis
[8] = target: 3',5'-cyclic-AMP phosphodiesterase 4A (Homo sapiens) (UniProt P27815); assay: Inhibition of recombinant N-terminal GST tagged human PDE4A4B (2-end aa) expressed in Sf9 cells using FAM-cAMP as substrate at 1xIC50 incubated for 60 mins by fluorescence plate reader analysis
[9] = target: cGMP-inhibited 3',5'-cyclic phosphodiesterase 3A (Homo sapiens) (UniProt Q14432); assay: Inhibition of recombinant PDE3A (unknown origin) using FAM-cAMP as substrate at 0.1xIC50 incubated for 60 mins by fluorescence plate reader analysis
Sequence of cGMP-inhibited 3',5'-cyclic phosphodiesterase 3A (Homo sapiens) (Q14432 whole entry): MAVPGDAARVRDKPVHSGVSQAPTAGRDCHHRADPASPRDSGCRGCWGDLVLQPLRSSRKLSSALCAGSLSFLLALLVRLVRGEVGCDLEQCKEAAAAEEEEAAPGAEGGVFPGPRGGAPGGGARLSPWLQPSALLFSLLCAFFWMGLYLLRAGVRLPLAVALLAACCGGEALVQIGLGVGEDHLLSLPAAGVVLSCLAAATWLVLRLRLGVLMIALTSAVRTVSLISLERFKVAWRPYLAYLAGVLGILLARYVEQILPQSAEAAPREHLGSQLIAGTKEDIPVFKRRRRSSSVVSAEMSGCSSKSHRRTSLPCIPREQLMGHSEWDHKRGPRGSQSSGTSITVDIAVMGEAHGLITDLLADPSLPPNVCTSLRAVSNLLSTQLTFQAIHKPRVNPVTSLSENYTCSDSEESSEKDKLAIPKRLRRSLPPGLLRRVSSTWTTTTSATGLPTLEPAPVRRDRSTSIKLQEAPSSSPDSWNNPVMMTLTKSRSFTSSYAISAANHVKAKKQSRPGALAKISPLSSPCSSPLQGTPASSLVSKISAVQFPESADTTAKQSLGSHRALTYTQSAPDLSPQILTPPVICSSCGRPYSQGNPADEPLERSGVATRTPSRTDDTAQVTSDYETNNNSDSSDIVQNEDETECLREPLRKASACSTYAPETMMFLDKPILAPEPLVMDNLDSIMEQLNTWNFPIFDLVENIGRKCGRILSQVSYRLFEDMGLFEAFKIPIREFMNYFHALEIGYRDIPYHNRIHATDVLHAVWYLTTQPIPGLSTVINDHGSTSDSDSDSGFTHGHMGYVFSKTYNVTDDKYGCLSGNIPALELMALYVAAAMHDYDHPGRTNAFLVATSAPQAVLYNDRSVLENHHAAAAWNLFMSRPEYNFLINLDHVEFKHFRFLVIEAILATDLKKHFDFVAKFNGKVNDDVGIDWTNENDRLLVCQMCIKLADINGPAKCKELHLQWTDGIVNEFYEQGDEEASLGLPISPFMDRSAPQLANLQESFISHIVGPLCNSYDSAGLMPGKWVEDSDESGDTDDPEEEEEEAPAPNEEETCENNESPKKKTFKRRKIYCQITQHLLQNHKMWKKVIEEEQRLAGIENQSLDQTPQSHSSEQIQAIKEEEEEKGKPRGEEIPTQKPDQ

[10] = target: cGMP-inhibited 3',5'-cyclic phosphodiesterase 3B (Homo sapiens) (UniProt Q13370); assay: Inhibition of recombinant N-terminal GST-tagged human PDE3B (592-end aa) expressed in Sf9 cells using FAM-cAMP as substrate at 0.1xIC50 incubated for 60 mins by fluorescence plate reader analysis
Sequence of cGMP-inhibited 3',5'-cyclic phosphodiesterase 3B (Homo sapiens) (Q13370 whole entry, looked up): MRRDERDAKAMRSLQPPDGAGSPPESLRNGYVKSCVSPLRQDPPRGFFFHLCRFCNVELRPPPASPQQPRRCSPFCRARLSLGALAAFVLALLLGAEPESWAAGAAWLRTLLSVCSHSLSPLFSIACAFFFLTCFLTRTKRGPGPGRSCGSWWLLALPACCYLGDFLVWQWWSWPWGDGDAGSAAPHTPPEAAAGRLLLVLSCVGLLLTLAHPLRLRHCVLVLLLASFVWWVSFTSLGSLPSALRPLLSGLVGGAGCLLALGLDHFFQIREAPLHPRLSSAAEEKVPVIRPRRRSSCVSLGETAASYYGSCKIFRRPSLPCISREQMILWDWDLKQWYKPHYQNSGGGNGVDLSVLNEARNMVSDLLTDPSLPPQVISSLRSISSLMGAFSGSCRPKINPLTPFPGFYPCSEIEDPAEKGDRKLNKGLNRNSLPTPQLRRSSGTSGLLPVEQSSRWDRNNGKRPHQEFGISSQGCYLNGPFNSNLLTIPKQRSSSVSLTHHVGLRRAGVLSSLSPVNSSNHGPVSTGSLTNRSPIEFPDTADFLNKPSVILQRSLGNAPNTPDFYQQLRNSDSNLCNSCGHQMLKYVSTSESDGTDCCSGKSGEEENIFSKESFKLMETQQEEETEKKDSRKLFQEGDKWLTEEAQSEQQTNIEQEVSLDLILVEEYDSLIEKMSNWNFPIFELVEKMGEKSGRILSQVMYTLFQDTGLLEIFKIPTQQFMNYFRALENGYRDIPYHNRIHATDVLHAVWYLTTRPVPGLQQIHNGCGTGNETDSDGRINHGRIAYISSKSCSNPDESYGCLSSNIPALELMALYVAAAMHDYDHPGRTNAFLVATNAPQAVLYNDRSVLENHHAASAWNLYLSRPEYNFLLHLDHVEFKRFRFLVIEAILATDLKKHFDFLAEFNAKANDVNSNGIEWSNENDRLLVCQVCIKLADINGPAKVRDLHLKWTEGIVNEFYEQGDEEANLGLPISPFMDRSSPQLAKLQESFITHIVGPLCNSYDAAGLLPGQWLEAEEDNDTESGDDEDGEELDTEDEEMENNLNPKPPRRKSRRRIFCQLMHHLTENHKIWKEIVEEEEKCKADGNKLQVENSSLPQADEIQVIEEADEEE

[11] = target: cGMP-inhibited 3',5'-cyclic phosphodiesterase 3B (Homo sapiens) (UniProt Q13370); assay: Inhibition of recombinant N-terminal GST-tagged human PDE3B (592-end aa) expressed in Sf9 cells using FAM-cAMP as substrate at 10xIC50 incubated for 60 mins by fluorescence plate reader analysis
[12] = target: cGMP-inhibited 3',5'-cyclic phosphodiesterase 3A (Homo sapiens) (UniProt Q14432); assay: Inhibition of recombinant PDE3A (unknown origin) using FAM-cAMP as substrate at 1xIC50 incubated for 60 mins by fluorescence plate reader analysis
[13] = target: cGMP-inhibited 3',5'-cyclic phosphodiesterase 3B (Homo sapiens) (UniProt Q13370); assay: Inhibition of recombinant N-terminal GST-tagged human PDE3B (592-end aa) expressed in Sf9 cells using FAM-cAMP as substrate at 1xIC50 incubated for 60 mins by fluorescence plate reader analysis
[14] = target: cGMP-inhibited 3',5'-cyclic phosphodiesterase 3A (Homo sapiens) (UniProt Q14432); assay: Inhibition of recombinant PDE3A (unknown origin) using FAM-cAMP as substrate at 10xIC50 incubated for 60 mins by fluorescence plate reader analysis
[15] = target: 3',5'-cyclic-AMP phosphodiesterase 4D (Homo sapiens, UniProt Q08499); assay: Inhibition of PDE4D2 (unknown origin) using cAMP as substrate preincubated with enzyme for 15 mins followed by substrate addition and incubated for 1 hr by PDELight HTS cAMP phosphodiesterase Kit based luminometry
PDE4C = PDE4C (Homo sapiens, UniProt Q08493); assay: Inhibition of PDE4C (unknown origin) at 100 uM using cAMP as substrate preincubated with enzyme for 15 mins followed by substrate addition and incubated for 1 hr by PDELight HTS cAMP phosphodiesterase Kit based luminometry relative to control; details: probe cAMP
Homo sapiens [16] = species: Homo sapiens; assay: Selectivity for recombinant His-tagged human PDE4B over PDE4C (unknown origin)
Homo sapiens [17] = species: Homo sapiens; assay: Selectivity index, ratio of IC50 for PDE4D2 (unknown origin) to IC50 for recombinant His-tagged human PDE4B expressed in sf9 cells using cAMP as substrate by PDELight HTS cAMP phosphodiesterase Kit based luminometry
Danio rerio = assay: Anti-sclerotic activity in MOG/CFA-induced zebra fish EAE model assessed as reduction in lesion score at 1 mg/kg, po measured for 7 days; type: functional, organism-based
[18] = target: Dual specificity calcium/calmodulin-dependent 3',5'-cyclic nucleotide phosphodiesterase 1C (Homo sapiens) (UniProt Q14123); assay: Inhibition of recombinant N-terminal GST tagged human PDE1C (2 to 634 aa) expressed in Sf9 cells at 10xIC50 using FAM-cAMP as substrate incubated for 60 mins by fluorescence plate reader analysis
Sequence of Dual specificity calcium/calmodulin-dependent 3',5'-cyclic nucleotide phosphodiesterase 1C (Homo sapiens) (Q14123 whole entry, the tested form may be a part): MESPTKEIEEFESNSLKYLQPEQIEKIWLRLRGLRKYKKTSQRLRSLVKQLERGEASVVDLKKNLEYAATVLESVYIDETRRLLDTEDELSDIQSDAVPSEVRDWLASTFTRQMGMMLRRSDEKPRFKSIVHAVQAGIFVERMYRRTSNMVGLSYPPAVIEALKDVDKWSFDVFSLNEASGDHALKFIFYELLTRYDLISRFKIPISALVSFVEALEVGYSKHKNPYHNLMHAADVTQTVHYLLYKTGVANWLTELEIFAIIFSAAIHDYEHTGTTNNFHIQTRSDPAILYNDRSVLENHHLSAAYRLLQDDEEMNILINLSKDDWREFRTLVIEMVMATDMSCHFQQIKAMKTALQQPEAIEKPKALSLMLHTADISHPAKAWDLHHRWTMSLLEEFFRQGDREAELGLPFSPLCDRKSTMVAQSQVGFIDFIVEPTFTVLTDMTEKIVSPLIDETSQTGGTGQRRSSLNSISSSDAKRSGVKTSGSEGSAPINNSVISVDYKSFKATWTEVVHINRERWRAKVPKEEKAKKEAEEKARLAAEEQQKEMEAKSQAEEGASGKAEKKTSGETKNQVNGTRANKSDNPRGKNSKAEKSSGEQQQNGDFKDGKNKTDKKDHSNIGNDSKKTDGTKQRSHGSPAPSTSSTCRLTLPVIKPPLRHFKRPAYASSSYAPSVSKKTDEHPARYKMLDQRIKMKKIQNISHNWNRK

[19] = target: Dual specificity calcium/calmodulin-dependent 3',5'-cyclic nucleotide phosphodiesterase 1A (Homo sapiens) (UniProt P54750); assay: Inhibition of recombinant N-terminal GST-tagged full-length human PDE1A1 expressed in Sf9 cells using FAM-cAMP as substrate at 1xIC50 incubated for 60 mins by fluorescence plate reader analysis
[20] = target: Dual specificity calcium/calmodulin-dependent 3',5'-cyclic nucleotide phosphodiesterase 1C (Homo sapiens) (UniProt Q14123); assay: Inhibition of recombinant N-terminal GST tagged human PDE1C (2 to 634 aa) expressed in Sf9 cells at 0.1xIC50 using FAM-cAMP as substrate incubated for 60 mins by fluorescence plate reader analysis
[21] = target: Dual specificity calcium/calmodulin-dependent 3',5'-cyclic nucleotide phosphodiesterase 1A (Homo sapiens) (UniProt P54750); assay: Inhibition of recombinant N-terminal GST-tagged full-length human PDE1A1 expressed in Sf9 cells using FAM-cAMP as substrate at 10xIC50 incubated for 60 mins by fluorescence plate reader analysis
[22] = target: Dual specificity calcium/calmodulin-dependent 3',5'-cyclic nucleotide phosphodiesterase 1B (Homo sapiens) (UniProt Q01064); assay: Inhibition of recombinant N-terminal GST tagged full length human PDE1B expressed in Sf9 cells using FAM-cAMP as substrate at 1xIC50 incubated for 60 mins by fluorescence plate reader analysis
[23] = target: Dual specificity calcium/calmodulin-dependent 3',5'-cyclic nucleotide phosphodiesterase 1B (Homo sapiens) (UniProt Q01064); assay: Inhibition of recombinant N-terminal GST tagged full length human PDE1B expressed in Sf9 cells using FAM-cAMP as substrate at 10xIC50 incubated for 60 mins by fluorescence plate reader analysis
[24] = target: Dual specificity calcium/calmodulin-dependent 3',5'-cyclic nucleotide phosphodiesterase 1B (Homo sapiens) (UniProt Q01064); assay: Inhibition of recombinant N-terminal GST tagged full length human PDE1B expressed in Sf9 cells using FAM-cAMP as substrate at 0.1xIC50 incubated for 60 mins by fluorescence plate reader analysis
[25] = target: Dual specificity calcium/calmodulin-dependent 3',5'-cyclic nucleotide phosphodiesterase 1C (Homo sapiens) (UniProt Q14123); assay: Inhibition of recombinant N-terminal GST tagged human PDE1C (2 to 634 aa) expressed in Sf9 cells at 1xIC50 using FAM-cAMP as substrate incubated for 60 mins by fluorescence plate reader analysis
[26] = target: Dual specificity calcium/calmodulin-dependent 3',5'-cyclic nucleotide phosphodiesterase 1A (Homo sapiens) (UniProt P54750); assay: Inhibition of recombinant N-terminal GST-tagged full-length human PDE1A1 expressed in Sf9 cells using FAM-cAMP as substrate at 0.1xIC50 incubated for 60 mins by fluorescence plate reader analysis

inhibition [1]: > 75%
IC50 [2]: 1.98 µM
Compound: C=CCn1cc(-c2ncccc2C#N)c2cc(OC)ccc21

inhibition [6]: 8%
inhibition [7]: 91%
inhibition [8]: 57%
Compound: CCOc1cc([C@@H](CS(C)(=O)=O)N2C(=O)c3cccc(NC(C)=O)c3C2=O)ccc1OC
inhibition [3]: 58%
inhibition [4]: 13%
inhibition [5]: 89%

inhibition [9]: 9%
inhibition [10]: 17%
inhibition [11]: 94%
inhibition [12]: 39%
inhibition [13]: 61%
inhibition [14]: 85%
Compound: CN(C(=O)CCCOc1ccc2[nH]c(=O)ccc2c1)C1CCCCC1

IC50 [15]: 15.2 µM
inhibition [1]: > 75%
inhibition at 1 h, 100 µM (PDE4C): 20 to 30%
Selectivity ratio (Homo sapiens [16]): > 250
IC50 [2]: 0.21 µM
Compound: CCOC(=O)Cn1cc(-c2nc3ccccc3nc2Cl)c2cc(OC)ccc21
Ratio IC50 (Homo sapiens [17]): 72

Compound: CCCCCCCCc1ccc(CCC(N)(CO)CO)cc1
inhibition (Danio rerio): Active

inhibition [1]: > 75%
IC50 [2]: 9.74 µM
Compound: CC(C)n1cc(-c2nc3ccccc3nc2Cl)c2cc(Br)ccc21

inhibition [18]: 86%
inhibition [19]: 52%
inhibition [20]: 18%
inhibition [21]: 87%
inhibition [22]: 55%
inhibition [23]: 86%
inhibition [24]: 16%
inhibition [25]: 52%
inhibition [26]: 7%
Compound: COc1ccc(Cc2nc(O)c3c(C)nc([C@@H](CCCc4ccccc4)[C@@H](C)O)n3n2)cc1OC

inhibition [1]: > 75%
IC50 [2]: 5.97 µM
Compound: COC(=O)/C=C/c1c(-c2nc3ccccc3nc2Cl)c2cc(OC)ccc2n1C(C)C

inhibition [1]: > 75%
IC50 [2]: 5.58 µM
Compound: CCOC(=O)/C=C/c1c(-c2nc3ccccc3nc2Cl)c2cc(OC)ccc2n1C(C)C

From ChEMBL document CHEMBL4393686, “InCl3 mediated heteroarylation of indoles and their derivatization via CH activation strategy: Discovery of 2-(1H-indol-3-yl)-quinoxaline derivatives as a new class of PDE4B selective inhibitors for arthritis and/or multiple sclerosis” (Eur J Med Chem, 2019)
